Data on 3 compounds can be found in patent US4025533A, “5-Bromo-5-nitro-2-alkylsubstituted-1,3-dioxane” (Eli Lilly and Company, priority 1976, dated 1977).

Values after ≈ are worked out from the molar mass of the structure shown.

Assay type in all cases: cell-based
The test system of assay [1] is Escherichia coli. Description: conventional tube dilution test (Table I). The settings on record: 48 h, antibiotic Number 3 medium, two days at 37° C., read-out: Minimum Inhibitory Concentration. The method, then: (§1) The in vitro antimicrobial activities of Compounds A, B and C, 5-bromo-2-ethyl-5-nitro-1,3-dioxane (Compound D), 5-bromo-5-nitro-2-n-propyl-1,3-dioxane (Compound E), and 5-bromo-2-isopropyl-5-nitro-1,3-dioxane (Compound F) were determined concurrently against Pseudomonas aeruginosa, Staphylococcus aureus, Escherichia coli, and Streptococcus faecalis in a conventional tube dilution test. The medium used was antibiotic Number 3 [CFR 436.102(3)] and the concentration of organisms was 10^4 organisms per ml of medium, with each tube being inoculated with 0.1 ml of inoculum. The figures shown in Table I are the lowest concentrations in mcg of active compound/ml of medium where no growth occurred in the medium after two days' incubation at 37° C.

Assay [2] concerns Pseudomonas aeruginosa. The experiment in a line: conventional tube dilution test (Table I). The settings on record: 48 h, antibiotic Number 3 medium, two days at 37° C., read-out: Minimum Inhibitory Concentration. The method, then: as §1
In assay [3] the test system is Staphylococcus aureus. The experiment in a line: conventional tube dilution test (Table I). The conditions noted are these: 48 h, antibiotic Number 3 medium, two days at 37° C., read-out: Minimum Inhibitory Concentration. On the procedure:
as §1

The subject of assay [4] is Streptococcus faecalis. The experiment in a line: conventional tube dilution test (Table I). The settings on record: Enterococcus faecalis, 48 h, antibiotic Number 3 medium, two days at 37° C., read-out: Minimum Inhibitory Concentration. On the procedure: as §1
Assay [5] deals with Aspergillus niger. The experiment in a line: agar plate system (Table II). The settings on record: antibiotic medium 22, 72 hours at 30° C., read-out: Minimum Inhibitory Concentration. On the procedure:
(§2) The antimicrobial activities of Compounds A, B, C, D, E and F were also determined in an agar plate system. The compounds were added to melted and cooled (50° C.) agar in twofold concentration increments from 50 mcg per ml of agar to 1.56 mcg per ml of agar. Antibiotic medium 1 [CFR 436.102(1)] was used for testing of Pseudomonas aeruginosa, Staphylococcus aureus, Escherichia coli, and Streptococcus faecalis, but antibiotic medium 22 [CFR 436.102(22)] was used for testing of Candida albicans and Aspergillus niger. Organism suspensions containing 10^6 organisms per ml were used as stock suspensions. Sterile cotton swabs were dipped in the suspensions and then streaked across the solidified agar. The figures shown in Table II were the lowest concentrations at which no growth occurred after 72 hours at 30° C. These values were interpreted as the minimum inhibitory concentration (MIC).

For assay [6], the system named is Candida albicans. The experiment in a line: agar plate system (Table II). The settings on record: antibiotic medium 22, 72 hours at 30° C., read-out: Minimum Inhibitory Concentration. The method, then: as §2
In assay [7] the test system is Escherichia coli. Description: agar plate system (Table II). The settings on record: antibiotic medium 1, 72 hours at 30° C., read-out: Minimum Inhibitory Concentration. The method, then:
as §2

The test system of assay [8] is Pseudomonas aeruginosa. Description: agar plate system (Table II). The conditions noted are these: antibiotic medium 1, 72 hours at 30° C., read-out: Minimum Inhibitory Concentration. On the procedure: as §2
Assay [9] deals with Staphylococcus aureus. Description: agar plate system (Table II). The conditions noted are these: antibiotic medium 1, 72 hours at 30° C., read-out: Minimum Inhibitory Concentration. On the procedure:
as §2

Assay [10] concerns Streptococcus faecalis. The experiment in a line: agar plate system (Table II). The conditions noted are these: Enterococcus faecalis, antibiotic medium 1, 72 hours at 30° C., read-out: Minimum Inhibitory Concentration. On the procedure:
as §2

Assay [11] deals with Aspergillus niger. Description: in vitro agar plate determination (Table VII). The conditions noted are these: agar plates at 10, 25 and 50 mcg. per ml., 24 hours, read-out: Minimum Inhibitory Concentration. The method, then: (§3) The antimicrobial activities of […] (Compound G) were determined concurrently with 5-bromo-2-methyl-5-nitro-1,3-dioxane (Compound C) and 5-bromo-5-nitro-1,3-dioxane (Compound B) against the same six organisms shown in Table II. […] The tests were in vitro determinations utilizing agar plates containing the active compound at 10, 25 and 50 mcg. per ml. of agar. The organisms, at concentrations of 10^6 organisms per milliliter, were streaked on the solidified agar. The plates were incubated for 24 hours and the presence or absence of growth noted. The minimum inhibitory concentration (MIC) was determined as the lowest active compound concentration in the agar where no growth occurred.

For assay [12], the system named is Candida albicans. The experiment in a line: in vitro agar plate determination (Table VII). The settings on record: agar plates at 10, 25 and 50 mcg. per ml., 24 hours, read-out: Minimum Inhibitory Concentration. The method, then:
as §3

The test system of assay [13] is Escherichia coli. The experiment in a line: in vitro agar plate determination (Table VII). The conditions noted are these: agar plates at 10, 25 and 50 mcg. per ml., 24 hours, read-out: Minimum Inhibitory Concentration. On the procedure:
as §3

Assay [14] has as its system Pseudomonas aeruginosa. The experiment in a line: in vitro agar plate determination (Table VII). The conditions noted are these: agar plates at 10, 25 and 50 mcg. per ml., 24 hours, read-out: Minimum Inhibitory Concentration. The method, then: as §3
Assay [15] concerns Staphylococcus aureus. The experiment in a line: in vitro agar plate determination (Table VII). The settings on record: agar plates at 10, 25 and 50 mcg. per ml., 24 hours, read-out: Minimum Inhibitory Concentration. The method, then:
as §3

The test system of assay [16] is Streptococcus faecalis. Description: in vitro agar plate determination (Table VII). The conditions noted are these: Enterococcus faecalis; agar plates at 10, 25 and 50 mcg. per ml., 24 hours; read-out: Minimum Inhibitory Concentration. The method, then: as §3

Consider `CC(C)C1OCC(Br)([N+](=O)[O-])CO1` (centres unmarked) [Compound F, 5-bromo-2-isopropyl-5-nitro-1,3-dioxane], for which the MIC in the assay with Escherichia coli [1] was 25 µg/mL (≈ 98.4 µM); in the assay with Pseudomonas aeruginosa [2], 50 µg/mL (≈ 197 µM); in the assay on Staphylococcus aureus [3], 25 µg/mL (≈ 98.4 µM); in the assay with Streptococcus faecalis [4], 25 µg/mL (≈ 98.4 µM); with Aspergillus niger [5], 12.5 µg/mL (≈ 49.2 µM); in the assay on Candida albicans [6], 6.25 µg/mL (≈ 24.6 µM). Moreover, the MIC came out at 12.5 µg/mL (≈ 49.2 µM) in the assay with Escherichia coli [7], 25 µg/mL (≈ 98.4 µM) in the assay on Pseudomonas aeruginosa [8], 12.5 µg/mL (≈ 49.2 µM) with Staphylococcus aureus [9] and 25 µg/mL (≈ 98.4 µM) in the assay on Streptococcus faecalis [10].

Take `CC1(C)OCC(Br)([N+](=O)[O-])CO1` [Compound G, 5-bromo-2,2-dimethyl-5-nitro-1,3-dioxane]: the MIC stood at 50 µg/mL (≈ 208 µM) in the assay with Aspergillus niger [11]; 25 µg/mL (≈ 104 µM) in the assay with Candida albicans [12]; 25 µg/mL (≈ 104 µM) with Escherichia coli [13]; 50 µg/mL (≈ 208 µM) with Pseudomonas aeruginosa [14]; 25 µg/mL (≈ 104 µM) in the assay on Staphylococcus aureus [15]; 25 µg/mL (≈ 104 µM) with Streptococcus faecalis [16].

For `CCCC1OCC(Br)([N+](=O)[O-])CO1` (centres unmarked) [Compound E, 5-bromo-5-nitro-2-n-propyl-1,3-dioxane], the MIC in the assay on Escherichia coli [1] worked out at 25 µg/mL (≈ 98.4 µM); in the assay with Pseudomonas aeruginosa [2], 50 µg/mL (≈ 197 µM); with Staphylococcus aureus [3] it was 50 µg/mL (≈ 197 µM); with Streptococcus faecalis [4], 25 µg/mL (≈ 98.4 µM); in the assay on Aspergillus niger [5], 6.25 µg/mL (≈ 24.6 µM); with Candida albicans [6], 3.1 µg/mL (≈ 12.2 µM). The MIC was determined as 12.5 µg/mL (≈ 49.2 µM) with Escherichia coli [7], 25 µg/mL (≈ 98.4 µM) in the assay on Pseudomonas aeruginosa [8], 12.5 µg/mL (≈ 49.2 µM) in the assay with Staphylococcus aureus [9] and 12.5 µg/mL (≈ 49.2 µM) in the assay with Streptococcus faecalis [10].
